In patent US8932997B2, “Anti-accretion agents for drilling fluids” (Lamberti SpA, priority 2008, dated 2015):

How the values were obtained:
[1] = Anti-accretion test (hot roll cells with steel bars and shale chips); conditions: additive amount per 350 ml test fluid as in fluid description; 50 g Arne clay chips; rolled 30 minutes at room temperature
Skeletonema costatum = test: Marine algal growth inhibition test (ISO/DP 10253); format: cell-based; conditions: concentrations 0.1 to 100.0 mg/l seawater
Description: The test was carried out according the ISO protocol ISO/DP 10253—Water quality—Marine algal growth inhibition test with Skeletonema costatum and Phaeodactylum tricornutum.
A culture of the marine algae Skeletonema costatum was exposed to a series of test concentrations of Additive 1 In addition to a control test, concentrations ranging from 0.1 to 100.0 mg/I seawater were tested. The test lasted for 72 hours, and EC50 (72 hours) was calculated to be higher than 10.0 mg/litre.

Molecule | accretion % (wt % of shale accreted on metal surface) [1] [%] | EC50 (72 hours) algal growth inhibition (Skeletonema costatum)
triethanolamine trioleate [Additive 1] | 10 | higher than 10.0 mg/litre
[Cl-].[K+] [KCl, potassium chloride, reference compound] | >70 | 
